Consider one compound from article PMC6526958 (Journal of medicinal chemistry, 2019).

Assay type in all cases: biochemical
In assay [1] the target is T1, recombinant soluble rat CD73 (Rattus norvegicus, UniProt P21588).
T1 sequence (P21588 29-551 limits assumed): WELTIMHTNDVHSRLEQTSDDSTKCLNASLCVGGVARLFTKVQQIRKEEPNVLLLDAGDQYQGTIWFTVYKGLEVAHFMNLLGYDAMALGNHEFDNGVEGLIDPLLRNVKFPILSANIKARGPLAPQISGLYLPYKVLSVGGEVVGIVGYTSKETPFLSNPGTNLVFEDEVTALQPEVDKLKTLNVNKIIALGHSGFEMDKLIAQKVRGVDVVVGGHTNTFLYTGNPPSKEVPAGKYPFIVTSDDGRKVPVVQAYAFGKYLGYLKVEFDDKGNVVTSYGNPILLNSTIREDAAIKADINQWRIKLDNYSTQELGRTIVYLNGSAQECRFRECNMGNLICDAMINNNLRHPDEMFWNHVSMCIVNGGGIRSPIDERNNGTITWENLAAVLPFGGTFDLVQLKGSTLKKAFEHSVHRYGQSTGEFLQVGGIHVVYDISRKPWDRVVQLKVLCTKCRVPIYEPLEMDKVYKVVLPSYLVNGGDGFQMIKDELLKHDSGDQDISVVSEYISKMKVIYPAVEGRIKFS
The assay can be described thus: radiometric CD73 assay with [2,8-3H]AMP, recombinant soluble rat CD73.

Assay [2] addresses T2, recombinant soluble human CD73 (Homo sapiens, UniProt P21589).
T2 sequence (P21589 28-549): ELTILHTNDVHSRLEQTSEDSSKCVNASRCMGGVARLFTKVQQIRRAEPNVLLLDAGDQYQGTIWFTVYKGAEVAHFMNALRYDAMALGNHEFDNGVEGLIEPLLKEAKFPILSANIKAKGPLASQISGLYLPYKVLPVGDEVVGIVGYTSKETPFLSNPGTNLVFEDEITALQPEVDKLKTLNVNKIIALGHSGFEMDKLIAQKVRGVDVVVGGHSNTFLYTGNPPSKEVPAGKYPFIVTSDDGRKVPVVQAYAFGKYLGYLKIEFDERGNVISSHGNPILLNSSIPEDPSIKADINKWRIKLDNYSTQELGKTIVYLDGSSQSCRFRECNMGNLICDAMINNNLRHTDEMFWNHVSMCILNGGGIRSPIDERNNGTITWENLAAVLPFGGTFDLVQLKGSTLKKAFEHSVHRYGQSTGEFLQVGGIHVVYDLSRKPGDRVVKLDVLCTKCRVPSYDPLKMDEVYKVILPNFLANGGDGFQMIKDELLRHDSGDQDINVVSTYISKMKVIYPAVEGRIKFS
The assay can be described thus: radiometric CD73 assay with [2,8-3H]AMP, recombinant soluble human CD73.

Assay [3] has as its system recombinant soluble human CD73. Described as above. The note with it: human versus rat CD73.
The target in assay [4] is T3, membrane-bound CD73 (MDA-MB-231 membrane preparation) (Homo sapiens, UniProt P21589).
T3 sequence (P21589 27-574): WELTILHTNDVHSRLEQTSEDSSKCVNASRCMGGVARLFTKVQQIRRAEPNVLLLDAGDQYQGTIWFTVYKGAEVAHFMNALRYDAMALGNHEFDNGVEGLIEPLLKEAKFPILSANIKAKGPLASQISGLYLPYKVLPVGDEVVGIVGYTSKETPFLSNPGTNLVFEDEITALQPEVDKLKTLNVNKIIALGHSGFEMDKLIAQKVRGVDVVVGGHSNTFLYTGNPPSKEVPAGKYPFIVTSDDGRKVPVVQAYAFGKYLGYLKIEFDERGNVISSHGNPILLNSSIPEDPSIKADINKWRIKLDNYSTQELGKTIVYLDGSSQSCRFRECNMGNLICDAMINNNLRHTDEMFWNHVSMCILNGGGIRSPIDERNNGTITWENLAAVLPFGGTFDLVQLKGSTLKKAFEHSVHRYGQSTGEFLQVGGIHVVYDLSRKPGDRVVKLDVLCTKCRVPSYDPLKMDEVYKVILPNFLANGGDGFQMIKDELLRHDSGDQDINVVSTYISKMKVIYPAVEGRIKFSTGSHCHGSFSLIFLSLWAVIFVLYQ
The assay can be described thus: radiometric CD73 assay, membrane preparations of MDA-MB-231 cells.

One may read the Ki as the dissociation constant of the complex between target and ligand, obtained from inhibition or displacement. `O=c1[nH]c(=NOCc2ccc(C(F)(F)F)cc2)ccn1[C@@H]1O[C@H](COP(=O)(O)CP(=O)(O)O)[C@@H](O)[C@H]1O` [9d, N^4-[O-(4-Trifluoromethylbenzyloxy)]-cytidine-5′-O-[(phosphonomethyl)phosphonic acid]]: the values for the Ki in assay [1], in assay [2] and in assay [4] were 30.3 ± 4.2 nM, 14 ± 1.6 nM and 10.1 ± 1.4 nM, respectively. In addition, in assay [3], the “fold more potent at human CD73 as compared to the rat enzyme” value lay in the range of 2 to 3 fold.
